These results are taken from ChEMBL document CHEMBL1201862, “PubChem BioAssay data set” (2004).

Molecules are shown by their SMILES.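 1) Cells in 96-well plates. 2) Compound, 48 h, 5 concentrations. 3) Linear interpolation between surrounding doses. 4) Unreached endpoint = highest concentration. GI50 = concentration required for 50% inhibition of growth.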 Activity calls are given as the source filed them. Cut-off read from the data, not from the text of the source: active = GI50 up to about 1.1 µM and inactive = higher. Where a SMILES comes first, the peptide text is derived from it. [ ]: non-standard residue; d: D form. pGlu = O=C1CC[CH](C(=O)O)N1 A value given as a limit tells only on which side of the number the result lay.

Some test systems named below: 786-0; A498; HCT-15; HL-60; HOP-62; K562; KM12; LOX IMVI; M14; MCF7; MDA-MB-435; MOLT-4; NCI-H23; NCI-H460; NCI-H522; OVCAR-5; OVCAR-8; RXF 393; SK-OV-3; SNB-75.
Holding throughout (test): NCI-60 cell line screen, 48 h

`O=C(/C=C/C(Cl)(Cl)Cl)Nc1ccc(Cl)cc1`: the GI50 in the test on 786-0 is 1.55 µM (inactive); in the test with A498, 13.9 µM (inactive); with HCT-15, 3.56 µM; in the test on HL-60, 1.48 µM (inactive); in the test on HOP-62, 4.94 µM (inactive); in the test on K562 it was 1.62 µM (inactive). In addition, the GI50 in the test with KM12 was 2.05 µM (inactive); in the test with LOX IMVI, 0.8 µM (active); in the test with M14 it was 4.62 µM (inactive); in the test on MCF7 it was 17.5 µM (inactive); with MDA-MB-435 it was 3.74 µM (inactive); in the test on MOLT-4, 1.64 µM (inactive). For the same compound, the GI50 in the test on NCI-H23 was 3.36 µM (inactive); with NCI-H460, 14.2 µM (inactive); in the test with NCI-H522, 0.514 µM (active); with OVCAR-5 it was 13.5 µM (inactive); in the test with OVCAR-8, 14.9 µM (inactive); in the test with RXF 393, 3.01 µM (inactive). The values for the GI50 in the test with SK-OV-3 and in the test with SNB-75 were 18.9 µM (inactive) and 3.69 µM (inactive), respectively.
In the case of `O=[N+]([O-])c1ccc(C2Nn3c(nnc3-c3cccc([N+](=O)[O-])c3)S2)cc1` (stereo not given), the GI50 was > 100 µM (inactive) in the test with 786-0; > 100 µM (inactive) in the test with A498; greater than 100 µM in the test on HCT-15; 89.3 µM (inactive) with HL-60; > 100 µM (inactive) with HOP-62; 50 µM (inactive) in the test on K562. The GI50 is > 100 µM (inactive) in the test on KM12; 82 µM (inactive) with LOX IMVI; > 100 µM (inactive) in the test with M14; 44.3 µM (inactive) with MCF7; 51.5 µM (inactive) in the test with MDA-MB-435; 37.8 µM (inactive) in the test on MOLT-4. For the same compound, the GI50 in the test on NCI-H23 was > 100 µM (inactive); with NCI-H460, > 100 µM (inactive); with NCI-H522, > 100 µM (inactive); with OVCAR-5, > 100 µM (inactive); in the test with OVCAR-8, 92.3 µM (inactive); in the test on RXF 393, > 100 µM (inactive). Besides, the GI50 with SK-OV-3 and with SNB-75 was > 100 µM (inactive) each time.
With `CC(NNC(=O)c1cc[n+]([BH2-]C#N)cc1)c1cccc(C(F)(F)F)c1` (stereo not given), the GI50 was > 100 µM (inactive) with 786-0; > 100 µM (inactive) with A498; 68.5 µM in the test on HCT-15; 34.5 µM (inactive) in the test with HL-60; > 100 µM (inactive) in the test on HOP-62; 47.8 µM (inactive) with K562. Further, the GI50 with KM12 is > 100 µM (inactive); in the test with LOX IMVI, 71.6 µM (inactive); with M14, 37.9 µM (inactive); in the test on MCF7, 56.2 µM (inactive); in the test on MDA-MB-435 it was > 100 µM (inactive); in the test on MOLT-4, 46.7 µM (inactive). Further, the GI50 in the test on NCI-H23 is 27.4 µM (inactive); with NCI-H460, 77.8 µM (inactive); with NCI-H522, 4.55 µM (inactive); in the test with OVCAR-5, > 100 µM (inactive); with OVCAR-8, > 100 µM (inactive); with RXF 393, 60.1 µM (inactive). Moreover, the figures for the GI50 in the test with SK-OV-3 and with SNB-75 were 26.7 µM (inactive) and > 100 µM (inactive), respectively.
Take `CC(=O)O[C@@]12CO[C@@H]1CC(O)[C@@]1(C)C(=O)[C@H](O)C3=C(C)C(O)C[C@@](O)(C(OC(=O)c4ccccc4)C12)C3(C)C` (stereo not given in full): the GI50 is 2.9 µM (inactive) in the test with 786-0; 5.82 µM (inactive) in the test on A498; 24.7 µM in the test on HCT-15; 0.41 µM (active) in the test with HL-60; 6.05 µM (inactive) in the test with HOP-62; 0.619 µM (active) in the test with K562. For the same compound, the GI50 in the test with KM12 is 0.558 µM (active); with LOX IMVI it was 0.839 µM (active); in the test on M14, 2.59 µM (inactive); in the test with MCF7, 0.463 µM (active); in the test with MDA-MB-435, 0.18 µM (active); with MOLT-4 it was 0.759 µM (active). In addition, the GI50 with NCI-H23 was 0.869 µM (active); with NCI-H460, 1.02 µM (active); in the test on NCI-H522, 0.637 µM (active); in the test with OVCAR-5, 3.94 µM (inactive); in the test on OVCAR-8, 3.13 µM (inactive); in the test with RXF 393 it was 25 µM (inactive). Moreover, the GI50 is 0.767 µM (active) in the test with SK-OV-3 and 0.507 µM (active) in the test with SNB-75.
For the compound `CC(NC(=O)C1CCC(=O)N1)C(=O)N1CCCC1C(N)=O` (stereo not drawn) ([pGlu]-Ala-Pro-NH2; configuration not given here), the GI50 with 786-0 is 61.7 µM (inactive); in the test with A498 it was 31.5 µM (inactive); with HCT-15, greater than 100 µM; with HL-60, > 100 µM (inactive); with HOP-62 it was > 100 µM (inactive); with K562 it was > 100 µM (inactive). For the same compound, the GI50 in the test with KM12, in the test on LOX IMVI, in the test with M14, in the test with MCF7, in the test on MDA-MB-435 and in the test with MOLT-4 was > 100 µM (inactive) each time. For the same compound, the GI50 in the test with NCI-H23, in the test with NCI-H460, in the test on NCI-H522, in the test on OVCAR-5, with OVCAR-8 and in the test with RXF 393 was > 100 µM (inactive) in each case. Moreover, the GI50 in the test on SK-OV-3 and with SNB-75 was > 100 µM (inactive) each time.
